The test has as its target T1, cytoplasmic kinase domain of human IGF-1R (IGF-1R-GST) (Homo sapiens, UniProt P08069).
T1 construct: cytoplasmic kinase domain of human IGF-1R (amino acids 964-1370); GST (glutathione-S-transferase); made in house; host or cells: High Five insect cells (Invitrogen)
Kind of test: Insulin-like growth factor-1 receptor (IGF-1R) kinase assay (DELFIA). Particulars: IGF-1R-GST kinase activity, read-out: IGF1R IC50. It counts as biochemical. On the procedure:
Insulin-Like Growth Factor-1 Receptor (IGF-1R)-Kinase Assay
The kinase activity is measured by DELFIA® assay (dissociation-enhanced lanthanide fluorescence immunoassay, Perkin Elmer). […] Enzyme activity is measured in the presence of substances and a control substance. Poly-glutamate-tyrosine peptide (pEY, Sigma Aldrich) and biotinylated pEY (bio-pEY) are used as reaction substrates.
After 40 min at RT the reactions are stopped with 50 μL of stop solution (250 mM EDTA, 20 mM HEPES pH 7.4). 90 μL from each reaction are transferred onto streptavidin-coated 96-well plates. After 120 min incubation at RT the plates are washed three times with 200 μL phosphate-buffered saline (PBS) per well. The plates are incubated for 60 min with 100 μL of europium-coupled antibody against phospho-tyrosine (diluted 1/2000 in Perkin Elmer DELFIA assay buffer) per well. The plates are washed three times with 200 μL per well of DELFIA washing buffer. 100 μL DELFIA Enhancement Solution (Perkin Elmer) is added to each well, and the plates are incubated for 10 min. The fluorescence signal is measured with a Wallac Victor TRF Reader. IC50 values for the inhibition of the IGF-1R-kinase activity are calculated using the programmes Fifty (Version 2) and GraphPad (Version 3.0).

These results are taken from patent publication US8546443B2, “Benzylic oxindole pyrimidines” (Boehringer Ingelheim International GmbH, priority 2010, dated 2013).

Broadly, the IC50 is the concentration needed to halve the response being measured.

T1 sequence (P08069 964-1367 limits assumed): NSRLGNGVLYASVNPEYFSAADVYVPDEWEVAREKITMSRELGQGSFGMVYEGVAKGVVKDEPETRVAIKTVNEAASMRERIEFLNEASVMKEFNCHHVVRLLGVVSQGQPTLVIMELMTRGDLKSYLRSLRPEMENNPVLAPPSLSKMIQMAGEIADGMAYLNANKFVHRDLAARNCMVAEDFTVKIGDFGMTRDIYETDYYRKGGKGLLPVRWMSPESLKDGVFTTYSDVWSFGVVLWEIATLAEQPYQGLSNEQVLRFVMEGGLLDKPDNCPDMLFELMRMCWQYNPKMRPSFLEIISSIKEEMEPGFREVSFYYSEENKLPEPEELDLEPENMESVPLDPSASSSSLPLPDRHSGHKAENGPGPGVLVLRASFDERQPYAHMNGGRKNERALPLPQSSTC

Consider `Cc1cc(C2CCCNC2)ccc1Nc1ncc(Br)c(NCc2cccc3c2C(C)(C)C(=O)N3)n1` (racemic) [Example I-7], for which the IC50 worked out at 0.69 nM.
In the case of `CC(=O)N1CCC(n2cc(Nc3ncc(Cl)c(NCc4cccc5c4C(C)(C)C(=O)N5)n3)cn2)CC1` [Example I-2] it was 21 nM; in that of `CN1CCN(c2ccc(Nc3ncc(Br)c(NCc4cccc5c4CC(=O)N5)n3)cc2)CC1` [Example I-8], 28 nM; in that of `COc1cc(N2CCNCC2)ccc1Nc1ncc(Cl)c(NCc2cccc3c2C(C)(C)C(=O)N3)n1` [Example I-11], 2 nM.
Regarding `COc1cc(N2CCC(N3CCN(S(C)(=O)=O)CC3)CC2)ccc1Nc1ncc(C(F)(F)F)c(NCc2cccc3c2C(C)(C)C(=O)N3)n1` [Example I-25], the IC50 was determined as 7 nM.
In the case of `COc1cc(N2CCC(N3CCN(S(C)(=O)=O)CC3)CC2)ccc1Nc1ncc(C(F)(F)F)c(NCc2cccc3c2CC(=O)N3)n1` [Example I-26] it was 9 nM; in that of `COc1cc(N2CCNCC2)ccc1Nc1ncc(C(F)(F)F)c(NCc2cccc3c2C(C)(C)C(=O)N3C)n1` [Example I-30], 3 nM; in that of `CCOc1cc(N2CCNCC2)ccc1Nc1ncc(C(F)(F)F)c(NCc2cccc3c2C(C)(C)C(=O)N3)n1` [Example I-33], 0.6 nM.
In the case of `CN(C)CC(=O)N1CCC(c2ccc(Nc3ncc(Br)c(NCc4cccc5c4C(C)(C)C(=O)N5)n3)cc2)CC1` [Example I-42] it was 0.79 nM.
For `CN(C)CC(=O)N1CCC(c2ccc(Nc3ncc(Cl)c(NCc4cccc5c4C(C)(C)C(=O)N5)n3)cc2)CC1` [Example I-43] the value was 7 nM.
As for `CC(C)(C)OC(=O)N1CCC[C@H]1C(=O)N1CCC(c2ccc(Nc3ncc(Cl)c(NCc4cccc5c4C(C)(C)C(=O)N5)n3)cc2)CC1` [Example I-44], the IC50 worked out at 25 nM.
For `CC(C)(C)OC(=O)NCC(=O)N1CCC(c2ccc(Nc3ncc(Cl)c(NCc4cccc5c4C(C)(C)C(=O)N5)n3)cc2)CC1` [Example I-45] the value was 23 nM; for `CN(CC(=O)N1CCC(c2ccc(Nc3ncc(Cl)c(NCc4cccc5c4C(C)(C)C(=O)N5)n3)cc2)CC1)C(=O)OC(C)(C)C` [Example I-46], 29 nM.
In the case of `CC(C)(C)OC(=O)N1CC(C(=O)N2CCC(c3ccc(Nc4ncc(Cl)c(NCc5cccc6c5C(C)(C)C(=O)N6)n4)cc3)CC2)C1` [Example I-47] it was 38 nM; in that of `CC1(C)C(=O)Nc2cccc(CNc3nc(Nc4ccc(C5CCN(C(=O)[C@@H]6CCCN6)CC5)cc4)ncc3Cl)c21` [Example I-49], 5 nM; in that of `CC1(C)C(=O)Nc2cccc(CNc3nc(Nc4ccc(C5CCN(C(=O)CN)CC5)cc4)ncc3Cl)c21` [Example I-50], 3 nM.
On to `CNCC(=O)N1CCC(c2ccc(Nc3ncc(Cl)c(NCc4cccc5c4C(C)(C)C(=O)N5)n3)cc2)CC1` [Example I-51], for which the IC50 came out at 2 nM.
In the case of `CC1(C)C(=O)Nc2cccc(CNc3nc(Nc4ccc(C5CCN(C(=O)C6CNC6)CC5)cc4)ncc3Cl)c21` [Example I-52] it was 7 nM.
For `COc1cc(C2CCN(C(=O)CN(C)C)CC2)ccc1Nc1ncc(Cl)c(NCc2cccc3c2C(C)(C)C(=O)N3)n1` [Example I-58] the value was 1 nM; for `COc1cc(N2CCN(C(=O)CCN3CCCC3)CC2)ccc1Nc1ncc(Cl)c(NCc2cccc3c2C(C)(C)C(=O)N3)n1` [Example I-59], 4 nM; for `COc1cc(N2CCN(C(=O)C3CCN(C)CC3)CC2)ccc1Nc1ncc(Cl)c(NCc2cccc3c2C(C)(C)C(=O)N3)n1` [Example I-60], 3 nM.
In the case of `COc1cc(N2CCN(C(=O)CN3CCN(C)CC3)CC2)ccc1Nc1ncc(Cl)c(NCc2cccc3c2C(C)(C)C(=O)N3)n1` [Example I-61] it was 3 nM; in that of `COc1cc(N2CCN(C(=O)CN(C)C)CC2)ccc1Nc1ncc(Cl)c(NCc2cccc3c2C(C)(C)C(=O)N3)n1` [Example I-62], 1 nM; in that of `COc1cc(N2CCN(C(=O)C3CCCN(C)C3)CC2)ccc1Nc1ncc(Cl)c(NCc2cccc3c2C(C)(C)C(=O)N3)n1` (centres unmarked) [Example I-63], 2 nM.
`COc1cc(N2CCN(C(=O)CCCN(C)C)CC2)ccc1Nc1ncc(Cl)c(NCc2cccc3c2C(C)(C)C(=O)N3)n1` [Example I-64]: the IC50 was 2 nM.
In the case of `COc1cc(N2CCN(C(C)=O)CC2)ccc1Nc1ncc(C(F)(F)F)c(NCc2cccc3c2CC(=O)N3)n1` [Example I-70] it was 21 nM; in that of `COc1cc(N2CCN(C(=O)N(C)C)CC2)ccc1Nc1ncc(C(F)(F)F)c(NCc2cccc3c2CC(=O)N3)n1` [Example I-71], 50 nM.
For `CCOC(=O)N1CCN(c2ccc(Nc3ncc(C(F)(F)F)c(NCc4cccc5c4CC(=O)N5)n3)c(OC)c2)CC1` [Example I-72] the value was 72 nM.
Consider `COC(=O)N1CCN(c2ccc(Nc3ncc(C(F)(F)F)c(NCc4cccc5c4C(C)(C)C(=O)N5)n3)c(OC)c2)C[C@H]1C` [Example I-73], for which the IC50 was determined as 29 nM.
In the case of `CN(C)CCCC(=O)N1CCC(c2ccc(Nc3ncc(C(F)(F)F)c(NCc4cccc5c4C(C)(C)C(=O)N5)n3)cc2)CC1` [Example I-74] it was 2 nM; in that of `CN(C)CC(=O)N1CCC(c2ccc(Nc3ncc(C(F)(F)F)c(NCc4cccc5c4C(C)(C)C(=O)N5)n3)cc2)CC1` [Example I-75], 2 nM; in that of `COc1cc(N2CCN(C(=O)N(C)C)CC2)ccc1Nc1ncc(C(F)(F)F)c(NCc2cccc3c2C(C)(C)C(=O)N3)n1` [Example I-76], 11 nM.
For the compound `COc1cc(N2CCN(C(C)=O)CC2)ccc1Nc1ncc(C(F)(F)F)c(NCc2cccc3c2C(C)(C)C(=O)N3)n1` [Example I-77], the IC50 was found to be 3 nM.
For the compound `CCOc1cc(N2CCN(C(C)=O)CC2)ccc1Nc1ncc(C(F)(F)F)c(NCc2cccc3c2CC(=O)N3)n1` [Example I-78], the IC50 was determined as 30 nM.
`CCOc1cc(N2CCN(C(C)=O)CC2)ccc1Nc1ncc(C(F)(F)F)c(NCc2cccc3c2C(C)(C)C(=O)N3)n1` [Example I-79]: the IC50 was found to be 4 nM.
For `COc1cc(N2CC3CC2CN3C(C)=O)ccc1Nc1ncc(C(F)(F)F)c(NCc2cccc3c2C(C)(C)C(=O)N3)n1` (centres unmarked) [Example I-80] the value was 47 nM; for `COc1cc(N2CC3CC2CN3C(=O)N(C)C)ccc1Nc1ncc(C(F)(F)F)c(NCc2cccc3c2C(C)(C)C(=O)N3)n1` (centres unmarked) [Example I-81], 81 nM.
For `COC(=O)N1CC2CC1CN2c1ccc(Nc2ncc(C(F)(F)F)c(NCc3cccc4c3C(C)(C)C(=O)N4)n2)c(OC)c1` (centres unmarked) [Example I-82] the value was 65 nM; for `COCC(=O)N1CCN(c2ccc(Nc3ncc(C(F)(F)F)c(NCc4cccc5c4C(C)(C)C(=O)N5)n3)c(OC)c2)CC1` [Example I-83], 5 nM.
For `COc1cc(N2CCN(C(=O)CN(C)C)CC2)ccc1Nc1ncc(C(F)(F)F)c(NCc2cccc3c2C(C)(C)C(=O)N3)n1` [Example I-84], the IC50 is 0.3 nM.
Consider `COCCC(=O)N1CCN(c2ccc(Nc3ncc(C(F)(F)F)c(NCc4cccc5c4C(C)(C)C(=O)N5)n3)c(OC)c2)CC1` [Example I-85], for which the IC50 is 9 nM.
For `COc1cc(N2CCN(C(=O)CCCN(C)C)CC2)ccc1Nc1ncc(C(F)(F)F)c(NCc2cccc3c2C(C)(C)C(=O)N3)n1` [Example I-86] the value was 1 nM.
For `COc1cc(N2CCN(C(=O)C3CCN(C)CC3)CC2)ccc1Nc1ncc(C(F)(F)F)c(NCc2cccc3c2C(C)(C)C(=O)N3)n1` [Example I-87] the value was 3 nM.
In the case of `COc1cc(N2CCN(C(=O)CN3CCN(C)CC3)CC2)ccc1Nc1ncc(C(F)(F)F)c(NCc2cccc3c2C(C)(C)C(=O)N3)n1` [Example I-88] it was 9 nM; in that of `COc1cc(N2CCN(C(=O)CCN(C)C)CC2)ccc1Nc1ncc(C(F)(F)F)c(NCc2cccc3c2C(C)(C)C(=O)N3)n1` [Example I-89], 0.18 nM.
Take `COc1cc(N2CCN(C(=O)C3CCCN(C)C3)CC2)ccc1Nc1ncc(C(F)(F)F)c(NCc2cccc3c2C(C)(C)C(=O)N3)n1` (centres unmarked) [Example I-90]: the IC50 came out at 0.32 nM.
In the case of `COc1cc(N2CCN(C(=O)CN(C)C)CC2)ccc1Nc1ncc(C(F)(F)F)c(NCc2cccc3c2CC(=O)N3)n1` [Example I-91] it was 6 nM; in that of `COc1cc(N2CCN(C(=O)CCCN(C)C)CC2)ccc1Nc1ncc(C(F)(F)F)c(NCc2cccc3c2CC(=O)N3)n1` [Example I-92], 9 nM.
Consider `CC1(C)C(=O)Nc2cccc(CNc3nc(Nc4ccc(C5CCN(C6COC6)CC5)cc4)ncc3Cl)c21` [Example I-93], for which the IC50 came to 5 nM.
In the case of `CN1CCN(c2ccc(Nc3ncc(Cl)c(NCc4cccc5c4C(C)(C)C(=O)N5)n3)cc2)CC1` [Example I-94] it was 14 nM; in that of `COc1cc(N2CCN(C3CCOCC3)CC2)ccc1Nc1ncc(Cl)c(NCc2cccc3c2C(C)(C)C(=O)N3)n1` [Example I-95], 16 nM; in that of `COc1cc(N2CCN(C3CCC3)CC2)ccc1Nc1ncc(Cl)c(NCc2cccc3c2C(C)(C)C(=O)N3)n1` [Example I-96], 3 nM.
In the case of `COc1cc(N2CCN(C(C)C)CC2)ccc1Nc1ncc(Cl)c(NCc2cccc3c2C(C)(C)C(=O)N3)n1` [Example I-98] it was 2 nM.
